Data on 1 compound can be found in publication PMC3724358 (The journal of physical chemistry. B, 2011).

Substitutions are numbered along the chain they refer to.

One may read the Kd as the concentration at which binding is half-saturated.

Assay [1] has as its target T1, Ht cyt c552 (Hydrogenobacter thermophilus cytochrome c552) (Hydrogenobacter thermophilus, UniProt P15452, M77A).
T1 sequence (P15452 19-98 M77A): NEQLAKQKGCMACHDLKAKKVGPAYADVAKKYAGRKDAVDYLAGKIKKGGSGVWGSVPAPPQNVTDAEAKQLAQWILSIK
Description: protein film voltammetry titration, pyrolytic graphite edge electrode. It is filed as binding.

Assay [2] concerns the target T2, Ht cyt c552 (Hydrogenobacter thermophilus cytochrome c552) (Hydrogenobacter thermophilus, UniProt P15452).
T2 sequence (P15452 19-98): T1 sequence (P15452 19-98 M77A) with A59M
The assay is described as above. It is filed as binding.

Regarding `c1c[nH]cn1` [Im, imidazole], the results for the Kd in assay [1] and in assay [2] were 756 µM and 2400 µM, respectively.
